Data set [1] relates to TxB2 production in plasma-depleted blood. As to the kind of experiment: Inhibition of Eicosanoid Production by Plasma-Depleted Blood: TxB2. The class given is cell-based. As to conditions: Homo sapiens, read-out: Plasma DPLTD Blood TxB2 IC50. On the procedure:
Inhibition of Eicosanoid Production by Plasma-Depleted Blood
Compounds are evaluated for their ability to inhibit production of leukotriene B4 (LTB4) and thromboxane B2 (TxB2) upon stimulation of human plasma-depleted blood with formyl-methionyl-leucyl-phenylalanine (FMLP) and thrombin. LTB4 is produced by neutrophils and TxB2 by platelets stimulated at their respective receptors with FMLP and thrombin. The assay is carried out in 1 ml deep well polypropylene 96-well plates (Beckman). For the test, ten ml of blood is collected in EDTA at a final concentration of 1.5 mg/ml. Then, 40 ml glucose phosphate buffer containing 0.1% gelatin is added and the suspension centrifuged at 900 g for 10 minutes at room temperature. The supernatant is discarded and the cells washed once with 50 ml buffer before resuspending them in 50 ml Krebs-Ringers-Henseleit Buffer containing 0.1% gelatin, 1 mM CaCl2, 1.1 mM MgCl2 (KRH buffer). Working solutions of test compounds are made by dissolving the material in DMSO at 10 mM and diluting with appropriate amounts of KRH buffer. An agonist solution is made containing 1 μM FMLP (sigma) and 10 units/ml of thrombin in KRH buffer (Enzyme Research Labs). […] The amount of LTB4 and TxB2 produced is determined by the use of a competitive enzyme immunoassay using commercial reagents from Cayman Chemical.

For a further data set, the system named is MCII cells. In words: MCII Mast Cell Toxicity Assay (XTT). The class given is cell-based, mouse. As to conditions: sensitized MCII cells, 4-12 hours, 37° C., read-out: MCII Mast Cell Toxicity IC50. The source says: MCII Mast Cell Toxicity Assay
This toxicity assay is run in parallel with the MCII mast cell LTC4 assay and serves as an indicator of compound effects on the viability and metabolic activity of the MCII cells. This "toxicity" assay is based on the ability of dehydrogenase enzymes present in viable metabolically active cells to bioreduce the tetrazolium sale XTT yielding a colored, water soluble formazan product. (see, Roehm et al.) "An improved colorimetric assay for cell proliferation and viability utilizing the tetrazolium salt XTT. J. Immunol. Methods 142:257-65 (1991).
A duplicate polystyrene 96-well tissue culture plate (Costar) is set up with sensitized MCII cells, EM95 ascites, media and dilutions of the test compound as described above. The complete media is supplemented with concanavalin A induced culture supernatants from the mouse helper T cell clone D10.G4, as a source of mast cell growth factors.
Wells of the toxicity assay plate are pulsed with 25 μl XTT (Sigma) plus phenazine methosulfate (Aldrich) giving a final concentration of 0.2 mg/ml XTT and 25 μM phenazine methosulfate. The plates are incubated at 37° C. in 10% CO2 for 4-12 hours and then production of the XTT formazan product determined by measuring the optical density of the wells at a wavelength of 450 nm. The positive control on each plate is stimulated MCII cells with dimethyl sulfoxide vehicle alone and the negative control is the same reaction mixture without cells. The background negative control value is subtracted from experimental and positive control values and the data are reported as percent of positive control.
For orientation: Formazan colour is commonly taken as a measure of viable cells.

Experimental findings from patent US5514703A, “Benzothiophene compounds useful for inhibiting lipoxygenase” (Eli Lilly and Company, priority 1995, dated 1996) are described below.

Where only a bound is given, the exact number is not on record here.

The term IC50 denotes the midpoint of a concentration-inhibition curve. `O=C(c1ccc(O)cc1)c1c(-c2ccc(O)cc2)sc2cc(O)ccc12` [Compound D]: the IC50 in data set [1] was over 9.8 µM. Turning to `O=C(c1cccc2ccccc12)c1c(-c2ccc(O)cc2)sc2cc(O)ccc12` [Example 2, 6-hydroxyphenyl-2-(p-hydroxyphenyl)-(benzo(B)thien-3-yl) (α-napthyl)methanone], in the data set on MCII cells, the CC50 is over 10 µM. As for `O=C(c1ccc(-c2ccccc2)cc1)c1c(-c2ccc(O)cc2)sc2cc(O)ccc12` [Example 1, 6-hydroxyphenyl-2-(p-hydroxyphenyl)-(benzo(B)thien-3-yl)(p-phenyl)phenyl methanone], in the data set on MCII cells, the CC50 is over 10 µM.

Regarding `O=C(c1ccc2ccccc2c1)c1c(-c2ccc(O)cc2)sc2cc(O)ccc12` [Example 3, 6-hydroxyphenyl-2-(p-hydroxyphenyl)-(benzo(B)thien-3-yl)(β-napthyl)methanone], the CC50 in the data set on MCII cells is over 10 µM. For the compound `Oc1ccc(-c2cc3ccc(O)cc3s2)cc1` [Compound B], the CC50 with MCII cells is under 10 µM.
